In the NIST ThermoML archive (doi:10.1016/j.tca.2004.11.015):
± gives the expanded uncertainty stated by the source.

Assay: xn = mol fraction of the nth substance listed
Settings: 101.33 kPa, Liquid, Vibrating tube method

NCCO [2-aminoethan-1-ol] + CO
mass density [kg/m3]
Settings | 283.15 K | 288.15 K | 293.15 K | 298.15 K | 303.15 K | 308.15 K | 313.15 K | 318.15 K
x1 = 0.012 | 805.83 ± 0.14 | 801.17 ± 0.14 | 796.49 ± 0.15 | 791.8 ± 0.15 | 787.1 ± 0.15 | 782.38 ± 0.15 | 777.63 ± 0.16 | 772.84 ± 0.16
x1 = 0.031 | 813.82 ± 0.14 | 809.2 ± 0.14 | 804.57 ± 0.15 | 799.92 ± 0.15 | 795.25 ± 0.15 | 790.55 ± 0.15 | 785.84 ± 0.15 | 781.09 ± 0.16
x1 = 0.05 | 821.45 ± 0.14 | 816.86 ± 0.14 | 812.26 ± 0.14 | 807.64 ± 0.15 | 803 ± 0.15 | 798.35 ± 0.15 | 793.66 ± 0.15 | 788.95 ± 0.16
x1 = 0.1 | 840.61 ± 0.14 | 836.11 ± 0.15 | 831.59 ± 0.15 | 827.05 ± 0.15 | 822.49 ± 0.15 | 817.92 ± 0.15 | 813.31 ± 0.15 | 808.68 ± 0.16
x1 = 0.15 | 858.27 ± 0.15 | 853.79 ± 0.15 | 849.33 ± 0.16 | 844.86 ± 0.16 | 840.37 ± 0.16 | 835.87 ± 0.16 | 831.33 ± 0.16 | 826.77 ± 0.16
x1 = 0.2002 | 874.67 ± 0.17 | 870.3 ± 0.17 | 865.9 ± 0.17 | 861.49 ± 0.17 | 857.06 ± 0.17 | 852.62 ± 0.17 | 848.14 ± 0.17 | 843.64 ± 0.17
x1 = 0.2501 | 889.65 ± 0.18 | 885.33 ± 0.18 | 880.98 ± 0.18 | 876.62 ± 0.18 | 872.24 ± 0.18 | 867.83 ± 0.19 | 863.41 ± 0.19 | 858.96 ± 0.19
x1 = 0.2974 | 902.94 ± 0.2 | 898.66 ± 0.2 | 894.35 ± 0.2 | 890.03 ± 0.2 | 885.69 ± 0.2 | 881.34 ± 0.2 | 876.95 ± 0.2 | –
x1 = 0.3502 | 916.72 ± 0.22 | 912.48 ± 0.22 | 908.21 ± 0.22 | 903.94 ± 0.22 | 899.65 ± 0.22 | 895.33 ± 0.22 | 891 ± 0.22 | –
x1 = 0.4001 | 928.53 ± 0.24 | 924.32 ± 0.24 | 920.09 ± 0.24 | 915.84 ± 0.24 | 911.58 ± 0.24 | 907.3 ± 0.24 | 903 ± 0.24 | –
x1 = 0.4427 | 938.12 ± 0.26 | 933.94 ± 0.26 | 929.73 ± 0.26 | 925.51 ± 0.26 | 921.28 ± 0.26 | 917.02 ± 0.26 | 912.75 ± 0.26 | –
x1 = 0.4502 | 939.89 ± 0.26 | 935.71 ± 0.26 | 931.52 ± 0.26 | 927.31 ± 0.26 | 923.08 ± 0.26 | 918.84 ± 0.26 | 914.57 ± 0.26 | –
x1 = 0.5002 | 950.16 ± 0.28 | 946.01 ± 0.28 | 941.84 ± 0.28 | 937.66 ± 0.28 | 933.46 ± 0.28 | 929.24 ± 0.28 | 925 ± 0.28 | –
x1 = 0.5501 | 959.78 ± 0.3 | 955.65 ± 0.3 | 951.5 ± 0.3 | 947.35 ± 0.3 | 943.18 ± 0.3 | 938.99 ± 0.3 | 934.78 ± 0.3 | –
x1 = 0.6001 | 968.89 ± 0.32 | 964.79 ± 0.32 | 960.67 ± 0.32 | 956.54 ± 0.32 | 952.39 ± 0.32 | 948.22 ± 0.32 | 944.04 ± 0.31 | –
x1 = 0.6501 | 977.39 ± 0.34 | 973.31 ± 0.34 | 969.21 ± 0.34 | 965.1 ± 0.34 | 960.97 ± 0.34 | 956.84 ± 0.34 | 952.68 ± 0.34 | –
x1 = 0.7005 | 985.59 ± 0.36 | 981.53 ± 0.36 | 977.45 ± 0.36 | 973.37 ± 0.36 | 969.28 ± 0.36 | 965.16 ± 0.36 | 961.03 ± 0.36 | –
x1 = 0.7479 | 992.48 ± 0.39 | 988.45 ± 0.39 | 984.39 ± 0.38 | 980.32 ± 0.38 | 976.24 ± 0.38 | 972.15 ± 0.38 | 968.04 ± 0.38 | –
x1 = 0.8002 | 1000.19 ± 0.41 | 996.18 ± 0.41 | 992.15 ± 0.41 | 988.11 ± 0.41 | 984.06 ± 0.41 | 980 ± 0.41 | 975.92 ± 0.41 | –
x1 = 0.8502 | 1006.55 ± 0.44 | 1002.56 ± 0.44 | 998.55 ± 0.44 | 994.53 ± 0.43 | 990.5 ± 0.43 | 986.45 ± 0.43 | 982.4 ± 0.43 | –
x1 = 0.8967 | 1012.63 ± 0.46 | 1008.66 ± 0.46 | 1004.66 ± 0.46 | 1000.67 ± 0.46 | 996.66 ± 0.46 | 992.63 ± 0.46 | 988.6 ± 0.45 | –
x1 = 0.9501 | 1018.78 ± 0.49 | 1014.82 ± 0.49 | 1010.85 ± 0.49 | 1006.88 ± 0.49 | 1002.89 ± 0.48 | 998.89 ± 0.48 | 994.88 ± 0.48 | –
